Each compound was assayed against Ba/F3 V617F cells (Homo sapiens, UniProt O60674, V617F, cells depend on it) (assay: Proliferation assay (Cell Titer-Glo, 72 h) utilizing Ba/F3 V617F cells). Conditions: Ba/F3 V617F cells, proliferation, level of activity given as class symbol, read-out: IC50 (the source's name).
Chain of Ba/F3 V617F cells (O60674 whole entry V617F): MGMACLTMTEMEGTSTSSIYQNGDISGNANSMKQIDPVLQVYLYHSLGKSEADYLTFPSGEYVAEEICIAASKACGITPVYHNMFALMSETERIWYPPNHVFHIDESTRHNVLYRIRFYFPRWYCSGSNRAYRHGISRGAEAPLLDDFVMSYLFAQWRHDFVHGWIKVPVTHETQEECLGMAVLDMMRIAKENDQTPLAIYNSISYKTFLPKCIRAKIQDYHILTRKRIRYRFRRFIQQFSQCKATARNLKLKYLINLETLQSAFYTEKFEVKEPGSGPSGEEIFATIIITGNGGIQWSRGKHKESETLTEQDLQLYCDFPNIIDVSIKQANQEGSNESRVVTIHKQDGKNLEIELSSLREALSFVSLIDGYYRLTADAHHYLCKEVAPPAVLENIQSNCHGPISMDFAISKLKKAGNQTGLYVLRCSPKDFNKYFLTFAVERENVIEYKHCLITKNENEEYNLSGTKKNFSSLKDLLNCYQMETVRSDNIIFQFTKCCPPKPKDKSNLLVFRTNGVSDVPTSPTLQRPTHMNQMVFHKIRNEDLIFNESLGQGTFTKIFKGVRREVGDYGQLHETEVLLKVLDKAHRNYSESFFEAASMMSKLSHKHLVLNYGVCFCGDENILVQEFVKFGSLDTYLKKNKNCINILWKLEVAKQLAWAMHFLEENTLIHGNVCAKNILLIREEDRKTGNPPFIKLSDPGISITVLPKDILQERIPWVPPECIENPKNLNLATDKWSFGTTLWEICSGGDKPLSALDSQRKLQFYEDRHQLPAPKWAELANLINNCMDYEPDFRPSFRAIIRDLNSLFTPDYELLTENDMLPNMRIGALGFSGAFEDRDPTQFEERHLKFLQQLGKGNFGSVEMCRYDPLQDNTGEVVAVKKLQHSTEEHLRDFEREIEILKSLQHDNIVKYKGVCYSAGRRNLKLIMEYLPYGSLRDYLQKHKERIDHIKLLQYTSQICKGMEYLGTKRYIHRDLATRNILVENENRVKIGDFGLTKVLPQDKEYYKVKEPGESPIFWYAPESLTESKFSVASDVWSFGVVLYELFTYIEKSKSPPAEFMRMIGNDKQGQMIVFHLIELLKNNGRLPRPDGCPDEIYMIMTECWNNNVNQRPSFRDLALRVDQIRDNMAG
Format: cell-based, mouse
Method in brief: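 Readout is CellTiter-Glo luminescence after 72 h at 37 °C, giving IC50. Cells: Ba/F3 V617F, 1×10^5 cells/mL in RPMI with 10% FBS, treated in duplicate with 3-fold dilution series made from 5 mM DMSO stock, 1:250 in 5% FBS medium, added at 2×.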
In the case of `Cc1cc(Nc2nccc(-c3cnc4c(c3)OC(C)(C)C(=O)N4)n2)ccc1N1C[C@@H]2C[C@H]1CN2C1CCCC1` [compound 250, 4-(2,2-dimethyl-3-oxo-3,4-dihydro-2H-pyrido[3,2-b][1,4]oxazin-7-yl)-N-(3-methyl-4-((1S,4S)-5-cyclopentyl-2,5-diazabicyclo[2.2.1]heptan-2-yl)phenyl)pyrimidin-2-amine], the GI50 is reported as < 1 µM.
For `CC1(C)Oc2cc(-c3ccnc(Nc4ccc(C5CC6CC5N(S(C)(=O)=O)C6)cc4)n3)cnc2NC1=O` (stereo not shown) [compound 228, 4-(2,2-dimethyl-3-oxo-3,4-dihydro-2H-pyrido[3,2-b][1,4]oxazin-7-yl)-N-(4-(2-methylsulfonyl-2-azabicyclo[2.2.1]heptan-6-yl)phenyl)pyrimidin-2-amine], the GI50 was < 1 µM.
In the case of `Cc1cc(Nc2nccc(-c3ccc4c(c3)OC(C)(C)C(=O)N4)n2)ccc1N1C[C@@H]2C[C@H]1CN2C` [compound 240, 4-(2,2-dimethyl-3-oxo-3,4-dihydro-2H-benzo[b][1,4]oxazin-7-yl)-N-(3-methyl-4-((1S,4S)-5-methyl-2,5-diazabicyclo[2.2.1]heptan-2-yl)phenyl)pyrimidin-2-amine], the GI50 is reported as < 1 µM.
In the case of `Cc1cc(Nc2nccc(-c3ccc(N4CCOCC4)nc3)n2)ccc1N1C[C@@H]2C[C@H]1CO2` [compound 194, 4-(6-(morpholin-4-yl)pyridin-3-yl)-N-(3-methyl-4-((1S,4S)-5-oxa-2-azabicyclo[2.2.1]heptan-2-yl)phenyl)pyrimidin-2-amine], the GI50 is reported as < 1 µM.
For `Cc1cc(Nc2nccc(-c3ccc(OC4CCOCC4)nc3)n2)ccc1N1C[C@@H]2C[C@H]1CN2C` [compound 261, 4-(6-(tetrahydropyran-4-yloxy)pyridin-3-yl)-N-(3-methyl-4-((1S,4S)-5-methyl-2,5-diazabicyclo[2.2.1]heptan-2-yl)phenyl)pyrimidin-2-amine], the GI50 was < 1 µM.
In the case of `CCCNc1ccc(-c2ccnc(Nc3ccc(N4C[C@@H]5C[C@H]4CO5)c(C)c3)n2)cn1` [compound 202, 4-(6-(propylamino)pyridin-3-yl)-N-(3-methyl-4-((1S,4S)-5-oxa-2-azabicyclo[2.2.1]heptan-2-yl)phenyl)pyrimidin-2-amine], the GI50 is reported as < 1 µM.
`Cc1cc(Nc2nccc(-c3ccc(NCCCN(C)C)nc3)n2)ccc1N1CC2(C)CN(C)CC(C)(C1)C2` [compound 214, 4-(6-(3-dimethylamino)propylaminopyridin-3-yl)-N-(3-methyl-4-(1,5,7-trimethyl-3,7-diazabicyclo[3.3.1]nonan-3-yl)phenyl)pyrimidin-2-amine] gave a GI50 of 1 to 10 µM.
For `Cc1cc(Nc2nccc(-c3ccc4c(c3)OC(C)(C)C(=O)N4)n2)ccc1N1CCN2C(C1)[C@H]1CC[C@@H]2C1` (stereo partly drawn) [compound 244, 4-(2,2-dimethyl-3-oxo-3,4-dihydro-2H-benzo[b][1,4]oxazin-7-yl)-N-(3-methyl-4-((6R,9S)-6,9-methanooctahydro-1H-pyrido[1,2-a]pyrazin-2-yl)phenyl)pyrimidin-2-amine], the GI50 was < 1 µM.
`Cc1cc(Nc2nccc(-c3cnc4c(c3)OCC(=O)N4)n2)ccc1N1C[C@@H]2C[C@H]1CO2` [compound 210, 4-(3-oxo-3,4-dihydro-2H-pyrido[3,2-b][1,4]oxazin-7-yl)-N-(3-methyl-4-((1S,4S)-5-oxa-2-azabicyclo[2.2.1]heptan-2-yl)phenyl)pyrimidin-2-amine] was tested, and the GI50 was < 1 µM.
For `Cc1cc(Nc2nccc(-c3cnc(N)c(CCCC(=O)OC(C)C)c3)n2)ccc1N1C[C@@H]2C[C@H]1CN2C` [compound 253, 4-(5-(1-methylethoxy)carbonylpropyl-6-aminopyridin-3-yl)-N-(3-methyl-4-((1S,4S)-5-methyl-2,5-diazabicyclo[2.2.1]heptan-2-yl)phenyl)pyrimidin-2-amine], the GI50 was < 1 µM.
For `Cc1cc(Nc2nccc(-c3ccc(N4CCCCC4)nc3)n2)ccc1N1C[C@@H]2C[C@H]1CN2C` [compound 190, 4-(6-(piperidin-1-yl)pyridin-3-yl)-N-(3-methyl-4-((1S,4S)-5-methyl-2,5-diazabicyclo[2.2.1]heptan-2-yl)phenyl)pyrimidin-2-amine], the GI50 was < 1 µM.

Same assay, conditions: Ba/F3 V617F cells, proliferation, level of activity to inhibit JAK2, read-out: IC50 (the source's name)
In the case of `CN1C[C@@H]2C[C@H]1CN2c1ccc(Nc2nccc(-c3ccc(N4CCOCC4)nc3)n2)cc1C#N` [compound 118, 4-(6-(morpholin-4-yl)pyridin-3-yl)-N-(3-cyano-4-((1S,4S)-5-methyl-2,5-diazabicyclo[2.2.1]heptan-2-yl)phenyl)pyrimidin-2-amine], the GI50 is reported as < 1 µM.
In the case of `CCN1C[C@@H]2C[C@H]1CN2c1ccc(Nc2nccc(-c3ccc(N4CCOCC4)nc3)n2)cc1C` [compound 25, 4-(6-(morpholin-4-yl)pyridin-3-yl)-N-(3-methyl-4-((1S,4S)-5-ethyl-2,5-diazabicyclo[2.2.1]heptan-2-yl)phenyl)pyrimidin-2-amine], the GI50 is reported as < 1 µM.
`CC(=O)Nc1ccc(-c2ccnc(Nc3ccc(N4C[C@@H]5C[C@H]4CO5)c(C)c3)n2)cn1` [compound 147, 4-(6-(acetamido)pyridin-3-yl)-N-(3-methyl-4-((1S,4S)-5-oxa-2-azabicyclo[2.2.1]heptan-2-yl)phenyl)pyrimidin-2-amine] was tested, and the GI50 was < 1 µM.
`CN1C[C@@H]2C[C@H]1CN2c1ccc(Nc2nccc(-c3ccc(NCCN4CCOCC4)nc3)n2)cc1F` [compound 70, 4-(6-(2-(morpholin-4-yl)ethyl)aminopyridin-3-yl)-N-(3-fluoro-4-((1S,4S)-5-methyl-2,5-diazabicyclo[2.2.1]heptan-2-yl)phenyl)pyrimidin-2-amine] was tested, and the GI50 was < 1 µM.
`CN1C[C@@H]2C[C@H]1CN2c1ccc(Nc2nccc(-c3cnc4[nH]ccc4c3)n2)cc1F` [compound 23, 4-(1H-pyrrolo[2,3-b]pyridin-5-yl)-N-(3-fluoro-4-((1S,4S)-5-methyl-2,5-diazabicyclo[2.2.1]heptan-2-yl)phenyl)pyrimidin-2-amine] was tested, and the GI50 was < 1 µM.
With `Cc1cc(Nc2ncc(F)c(-c3ccc(N(C)C)nc3)n2)ccc1N1C[C@@H]2C[C@H]1CN2C` [compound 4, 4-(6-(N,N-dimethylamino)pyridin-3-yl)-5-fluoro-N-(3-methyl-4-((1S,4S)-5-methyl-2,5-diazabicyclo[2.2.1]heptan-2-yl)phenyl)pyrimidin-2-amine] the GI50 was < 1 µM.
With `Cc1cc(Nc2nccc(-c3ccc4nccn4c3)n2)ccc1N1CCN2CCC1C2` (stereo not shown) [compound 123, 4-(imidazo[1,2-a]pyridin-6-yl)-N-(3-methyl-4-(1,4-diazabicyclo[3.2.1]octan-4-yl)phenyl)pyrimidin-2-amine] the GI50 was < 1 µM.
For `CN1C[C@@H]2C[C@H]1CN2c1ccc(Nc2nccc(-c3cnc4c(c3)OC(C)(C)C(=O)N4)n2)cc1C#N` [compound 53, 4-(2,2-dimethyl-3-oxo-3,4-dihydro-2H-pyrido[3,2-b][1,4]oxazin-7-yl)-N-(3-cyano-4-((1S,4S)-5-methyl-2,5-diazabicyclo[2.2.1]heptan-2-yl)phenyl)pyrimidin-2-amine], the GI50 was < 1 µM.
For `Cc1cc(Nc2ncc(C)c(-c3ccc(N(C)C)nc3)n2)ccc1N1C[C@@H]2C[C@H]1CN2C` [compound 2, 4-(6-(N,N-dimethylamino)pyridin-3-yl)-5-methyl-N-(3-methyl-4-((1S,4S)-5-methyl-2,5-diazabicyclo[2.2.1]heptan-2-yl)phenyl)pyrimidin-2-amine], the GI50 was < 1 µM.
With `CNC(=O)c1ccc(-c2ccnc(Nc3ccc(N4C[C@@H]5C[C@H]4CN5C)c(C)c3)n2)cn1` [compound 50, 4-(6-(methylaminocarbonyl)pyridin-3-yl)-N-(3-methyl-4-((1S,4S)-5-methyl-2,5-diazabicyclo[2.2.1]heptan-2-yl)phenyl)pyrimidin-2-amine] the GI50 was < 1 µM.
In the case of `CN1C[C@@H]2C[C@H]1CN2c1ccc(Nc2nccc(-c3ccc(N4CCOCC4)cc3)n2)cc1F` [compound 47, 4-(4-(morpholin-4-yl)phenyl)-N-(3-fluoro-4-((1S,4S)-5-methyl-2,5-diazabicyclo[2.2.1]heptan-2-yl)phenyl)pyrimidin-2-amine], the GI50 is reported as 1 to 10 µM.
`CN1C[C@@H]2C[C@H]1CN2c1ccc(Nc2nccc(-c3ccc(NC(=O)NC4CC4)cc3)n2)cc1` [compound 139, 4-(4-(3-cyclopropylureido)phenyl)-N-(4-((1S,4S)-5-methyl-2,5-diazabicyclo[2.2.1]heptan-2-yl)phenyl)pyrimidin-2-amine] was tested, and the GI50 was < 1 µM.
Work on `CN1CC2(C)CN(c3ccc(Nc4nccc(-c5cnc6c(c5)OCCN6)n4)cc3F)CC(C)(C1)C2` [compound 89, 4-(3,4-dihydro-2H-pyrido[3,2-b][1,4]oxazin-7-yl)-N-(3-fluoro-4-(1,5,7-trimethyl-3,7-diazabicyclo[3.3.1]nonan-3-yl)phenyl)pyrimidin-2-amine] yielded a GI50 of 1 to 10 µM.
In the case of `CN1C[C@@H]2C[C@H]1CN2c1ccc(Nc2nccc(-c3cnc(N4CCOCC4)cn3)n2)cc1F` [compound 179, 4-(5-(morpholin-4-yl)pyrazin-2-yl)-N-(3-fluoro-4-((1S,4S)-5-methyl-2,5-diazabicyclo[2.2.1]heptan-2-yl)phenyl)pyrimidin-2-amine], the GI50 is reported as 1 to 10 µM.
For `CN1C[C@@H]2C[C@H]1CN2c1ccc(Nc2nccc(-c3cnc4c(c3)OC(C)(C)C(=O)N4)n2)cc1F` [compound 19, 4-(2,2-dimethyl-3-oxo-3,4-dihydro-2H-pyrido[3,2-b][1,4]oxazin-7-yl)-N-(3-fluoro-4-((1S,4S)-5-methyl-2,5-diazabicyclo[2.2.1]heptan-2-yl)phenyl)pyrimidin-2-amine], the GI50 was < 1 µM.
For `CN1C[C@@H]2C[C@H]1CN2c1ccc(Nc2nccc(-c3cc[nH]c3)n2)cc1C(F)(F)F` [compound 171, 4-(1H-pyrrol-3-yl)-N-(3-trifluoromethyl-4-((1S,4S)-5-methyl-2,5-diazabicyclo[2.2.1]heptan-2-yl)phenyl)pyrimidin-2-amine], the GI50 was < 1 µM.
`Cc1cc(Nc2nccc(-c3ccc(CC(=O)NC4CC4)cc3)n2)ccc1N1C[C@@H]2C[C@H]1CN2C` [compound 49, 4-(4-((cyclopropyl)aminocarbonyl-methyl)phenyl)-N-(3-methyl-4-((1S,4S)-5-methyl-2,5-diazabicyclo[2.2.1]heptan-2-yl)phenyl)pyrimidin-2-amine] showed a GI50 of 1 to 10 µM.
